Experimental data from ChEMBL document CHEMBL5055666, “Tyrosine-Derived Novel Benzoxazine Active in a Rat Syngenic Mammary Tumor Model of Breast Cancer” (J Med Chem, 2021).
Active and inactive are the calls of the source. The calls are words filed in the database; no cut-off is given here.

Experiments:
MCF7 [1] = test: Antiproliferative activity against human MCF7 cells assessed as inhibition of cell growth incubated for 24 hrs by MTT assay; type: functional, cell-based; details: MCF7, 24 h
[2] = Cmax in Sprague-Dawley rat at 5 mg/kg, po measured upto 24 hrs; type: ADME, organism-based; set-up: time < 24 hrs, dose 5 mg/kg, route po; details: in vivo
MDA-MB-231 [3] = test: Induction of apoptosis in human MDA-MB-231 cells assessed as nuclear blabbing after 24 hrs by DAPI staining based fluorescent microscopic analysis; type: functional, cell-based; details: dose 0.125-1 µM
MCF7 [4] = test: Induction of cell cycle arrest in human MCF7 cells assessed as increase in sub-diploid population at 0.125 to 1 uM after 24 to 48 hrs by propidium iodide staining based flow cytometric analysis; type: functional; details: dose 0.125-1 µM, time 24-48 hrs
[5] = Half life in Sprague-Dawley rat at 5 mg/kg, po measured upto 24 hrs; type: ADME, organism-based; details: in vivo
[6] = Apparent oral volume of distribution in Sprague-Dawley rat at 0.5 mg/kg, iv measured upto 24 hrs; type: ADME, organism-based; details: in vivo
MCF7 [7] = test: Induction of intracellular ROS generation in human MCF7 cells at 0.125 to 1 uM incubated for 24 hrs by DCFH-DA staining-based flow cytometric analysis; type: functional, cell-based; details: dose 0.125-1 µM
MCF7 [8] = test: Upregulation of ERbeta expression in human MCF7 cells after 24 hrs by immunoblot analysis; type: functional, cell-based; details: dose 500-5 µM
[9] = Induction of cell damage in human HEK293 cells assessed as increase in LDH release at > 20 uM; type: cell-based; details: hek293, 20 µM
LA7 [10] = test: Antiproliferative activity against rat LA7 cells assessed as inhibition of cell growth incubated for 24 hrs by MTT assay; type: functional, cell-based; details: LA7, 24 h
[11] = Half life in Sprague-Dawley rat at 0.5 mg/kg, iv measured upto 24 hrs; type: ADME, organism-based; details: in vivo
[12] = Drug release in tris buffer pH 7.4 after 10 min by membrane dialysis method; type: physicochemical; details: pH 7.4, 10 min
[13] = Cmax in Sprague-Dawley rat at 0.5 mg/kg, iv measured upto 24 hrs; type: ADME, organism-based; set-up: time < 24 hrs, dose 0.5 mg/kg, route iv; details: in vivo
[14] = Apparent oral clearance in Sprague-Dawley rat at 5 mg/kg, po measured upto 24 hrs; type: ADME, organism-based; details: in vivo
MDA-MB-231 [15] = test: Antiproliferative activity against human MDA-MB-231 cells assessed as inhibition of cell growth incubated for 48 hrs by MTT assay; type: functional, cell-based; details: MDA-MB-231, 48 h
MDA-MB-231 [16] = test: Disruption of mitochondrial membrane integrity in human MDA-MB-231 cells assessed as reduction in mitochondrial membrane potential at 0.125 to 1 uM by JC-1 staining based flow cytometry analysis; type: functional, cell-based; details: dose 0.125-1 µM
MCF7 [17] = test: Induction of apoptosis in human MCF7 cells assessed as nuclear blabbing after 24 hrs by DAPI staining based fluorescent microscopic analysis; type: functional, cell-based; details: dose 0.125-1 µM
MCF7 [18] = test: Disruption of mitochondrial membrane integrity in human MCF7 cells assessed as reduction in mitochondrial membrane potential at 0.125 to 1 uM by JC-1 staining based flow cytometry analysis; type: functional, cell-based; details: dose 0.125-1 µM
Rattus norvegicus [19] = test: Toxicity in Sprague-Dawley rat inoculated with rat LA7 cells assessed as change in organ weight at 5 to 20 mg/kg administered daily for 21 days; type: organism-based; details: la7, 504 h, dose 5-20 mg/kg, time 21 day
MDA-MB-231 [20] = test: Induction of cell cycle arrest in human MDA-MB-231 cells assessed as increase in sub-diploid population at 0.125 to 1 uM after 24 to 48 hrs by propidium iodide staining based flow cytometric analysis; type: functional; details: dose 0.125-1 µM, time 24-48 hrs
MCF7 [21] = test: Antiproliferative activity against human MCF7 cells assessed as inhibition of cell growth incubated for 48 hrs by MTT assay; type: functional, cell-based; details: MCF7, 48 h
LA7 [22] = test: Antiproliferative activity against rat LA7 cells assessed as inhibition of cell growth incubated for 48 hrs by MTT assay; type: functional, cell-based; details: LA7, 48 h
Rattus norvegicus [23] = test: Toxicity in Sprague-Dawley rat inoculated with rat LA7 cells assessed as mortality at 5 to 20 mg/kg administered daily for 21 days; type: organism-based; details: la7, 504 h, dose 5-20 mg/kg, time 21 day
[24] = Apparent oral clearance in Sprague-Dawley rat at 0.5 mg/kg, iv measured upto 24 hrs; type: ADME, organism-based; details: in vivo
[25] = AUC(0 to infinity) in Sprague-Dawley rat at 0.5 mg/kg, iv measured upto 24 hrs; type: ADME, organism-based; set-up: time < 24 hrs, dose 0.5 mg/kg, route iv; details: in vivo
MCF-10A [26] = test: Antiproliferative activity against human MCF-10A cells assessed as inhibition of cell growth incubated for 24 hrs by MTT assay; type: cell-based
MCF7 [27] = test: Induction of apoptosis in human MCF7 cells assessed as increase in total apoptotic population at 0.125 to 1 uM after 24 to 48 hrs by Annexin V-FITC/propidium iodide staining based flow cytometric analysis; type: functional, cell-based; details: dose 0.125-1 µM, time 24-48 hrs
MDA-MB-231 [28] = test: Induction of apoptosis in human MDA-MB-231 cells assessed as increase in total apoptotic population at 0.125 to 1 uM after 24 to 48 hrs by Annexin V-FITC/propidium iodide staining based flow cytometric analysis; type: functional, cell-based; details: dose 0.125-1 µM, time 24-48 hrs
[29] = Apparent oral volume of distribution in Sprague-Dawley rat at 5 mg/kg, po measured upto 24 hrs; type: ADME, organism-based; details: in vivo
MDA-MB-231 [30] = test: Induction of apoptosis in human MDA-MB-231 cells assessed as nuclear condensation after 24 hrs by DAPI staining based fluorescent microscopic analysis; type: functional, cell-based; details: dose 0.125-1 µM
[31] = Tmax in Sprague-Dawley rat at 0.5 mg/kg, iv measured upto 24 hrs; type: ADME, organism-based; details: in vivo
MCF7 [32] = test: Antiproliferative activity against human MCF7 cells assessed as inhibition of cell growth incubated for 72 hrs by MTT assay; type: functional, cell-based; details: MCF7, 72 h
[33] = Tmax in Sprague-Dawley rat at 5 mg/kg, po measured upto 24 hrs; type: ADME, organism-based; details: in vivo
MDA-MB-231 [34] = test: Induction of intracellular ROS generation in human MDA-MB-231 cells at 0.125 to 1 uM incubated for 24 hrs by DCFH-DA staining-based flow cytometric analysis; type: functional, cell-based; details: dose 0.125-1 µM
[35] = Mean residence time in Sprague-Dawley rat at 5 mg/kg, po measured upto 24 hrs; type: ADME, organism-based; details: in vivo
MCF7 [36] = test: Induction of cell damage in human MCF7 cells assessed as increase in LDH release at 0.125 to 100 uM; type: functional, cell-based; details: dose 0.125-100 µM
LA7 [37] = test: Antitumor activity against rat LA7 cells inoculated in Sprague-Dawley rat assessed as inhibition of tumor growth at 5 to 20 mg/kg administered daily for 21 days; type: functional, organism-based; details: dose 5-20 mg/kg, time 21.0 day
[38] = AUC(0 to infinity) in Sprague-Dawley rat at 5 mg/kg, po measured upto 24 hrs; type: ADME, organism-based; set-up: dose 5 mg/kg, time < 24 hrs, route po; details: in vivo
MCF7 [39] = test: Downregulation of ERalpha expression in human MCF7 cells after 24 hrs by immunoblot analysis; type: functional, cell-based
MDA-MB-231 [40] = test: Antiproliferative activity against human MDA-MB-231 cells assessed as inhibition of cell growth incubated for 24 hrs by MTT assay; type: functional, cell-based; details: MDA-MB-231, 24 h
MCF-10A [41] = test: Antiproliferative activity against human MCF-10A cells assessed as inhibition of cell growth incubated for 72 hrs by MTT assay; type: cell-based
[42] = Mean residence time in Sprague-Dawley rat at 0.5 mg/kg, iv measured upto 24 hrs; type: ADME, organism-based; details: in vivo
Rattus norvegicus [43] = test: Toxicity in Sprague-Dawley rat inoculated with rat LA7 cells assessed as increase in uterine tissue at 5 to 20 mg/kg administered daily for 21 days; type: organism-based; details: la7, 504 h, dose 5-20 mg/kg, time 21 day
MDA-MB-231 [44] = test: Antiproliferative activity against human MDA-MB-231 cells assessed as inhibition of cell growth incubated for 72 hrs by MTT assay; type: functional, cell-based; details: MDA-MB-231, 72 h
LA7 [45] = test: Antiproliferative activity against rat LA7 cells assessed as inhibition of cell growth incubated for 72 hrs by MTT assay; type: functional, cell-based; details: LA7, 72 h
LA7 [46] = test: Antitumor activity against rat LA7 cells inoculated in Sprague-Dawley rat assessed as reduction in formation of neoplastic lesions in lungs at 5 to 20 mg/kg administered daily for 21 days; type: functional, organism-based; details: dose 5-20 mg/kg, time 21.0 day
MCF7 [47] = test: Induction of apoptosis in human MCF7 cells assessed as nuclear condensation after 24 hrs by DAPI staining based fluorescent microscopic analysis; type: functional, cell-based; details: dose 0.125-1 µM
MDA-MB-231 [48] = test: Induction of cell damage in human MDA-MB-231 cells assessed as increase in LDH release at 0.125 to 100 uM; type: functional, cell-based; details: dose 0.125-100 µM

COc1ccc(C[C@H]2COc3ccccc3N2Cc2ccc(OCCN3CCCC3)cc2)cc1
IC50 (MCF7 [1]): 200 nM
Cmax [2]: 43.2 ng/mL
Activity (MDA-MB-231 [3]): Dose-dependent effect
Activity (MCF7 [4]): Dose-dependent effect
half-life [5]: 8.97 h
Vd/F [6]: 19.9 L/kg
Activity (MCF7 [7]): Active
Activity (MCF7 [8]): Dose-dependent effect
Activity [9]: Toxic
IC50 (LA7 [10]): 660 nM
half-life [11]: 3.42 h
Drug transport [12]: 90%
Cmax [13]: 49.6 ng/mL
CL/F [14]: 176 mL/min/kg
IC50 (MDA-MB-231 [15]): 700 nM
Activity (MDA-MB-231 [16]): Active
Activity (MCF7 [17]): Dose-dependent effect
Activity (MCF7 [18]): Active
Activity (Rattus norvegicus [19]): Non-Toxic
Activity (MDA-MB-231 [20]): Dose-dependent effect
IC50 (MCF7 [21]): 300 nM
IC50 (LA7 [22]): 240 nM
Activity (Rattus norvegicus [23]): Non-Toxic
CL/F [24]: 68.8 mL/min/kg
AUC(0-inf) [25]: 124 ng·h/mL
IC50 (MCF-10A [26]): > 25000 nM
Activity (MCF7 [27]): Active
Activity (MDA-MB-231 [28]): Active
Vd/F [29]: 140 L/kg
Activity (MDA-MB-231 [30]): Dose-dependent effect
Tmax [31]: 0.83 h
IC50 (MCF7 [32]): 250 nM
Tmax [33]: 0.25 h
Activity (MDA-MB-231 [34]): Active
MRT [35]: 16.1 h
Activity (MCF7 [36]): Active
Activity (LA7 [37]): Active
AUC(0-inf) [38]: 506 ng·h/mL
Activity (MCF7 [39]): Dose-dependent effect
IC50 (MDA-MB-231 [40]): 650 nM
IC50 (MCF-10A [41]): > 18000 nM
MRT [42]: 4.66 h
Activity (Rattus norvegicus [43]): Non-Toxic
IC50 (MDA-MB-231 [44]): 700 nM
IC50 (LA7 [45]): 190 nM
Activity (LA7 [46]): Active
Activity (MCF7 [47]): Dose-dependent effect
Activity (MDA-MB-231 [48]): Active
